How the values were obtained:
IRAK4 = target: T1, IRAK4 (Homo sapiens, UniProt Q9NWZ3); assay: DiscoverX KINOMEscan competition binding assay, IRAK4; parameters: purchased Reaction Biology (RBC HotSpot); conditions: 11-point 3-fold dilution
T1 sequence (Q9NWZ3 1-460): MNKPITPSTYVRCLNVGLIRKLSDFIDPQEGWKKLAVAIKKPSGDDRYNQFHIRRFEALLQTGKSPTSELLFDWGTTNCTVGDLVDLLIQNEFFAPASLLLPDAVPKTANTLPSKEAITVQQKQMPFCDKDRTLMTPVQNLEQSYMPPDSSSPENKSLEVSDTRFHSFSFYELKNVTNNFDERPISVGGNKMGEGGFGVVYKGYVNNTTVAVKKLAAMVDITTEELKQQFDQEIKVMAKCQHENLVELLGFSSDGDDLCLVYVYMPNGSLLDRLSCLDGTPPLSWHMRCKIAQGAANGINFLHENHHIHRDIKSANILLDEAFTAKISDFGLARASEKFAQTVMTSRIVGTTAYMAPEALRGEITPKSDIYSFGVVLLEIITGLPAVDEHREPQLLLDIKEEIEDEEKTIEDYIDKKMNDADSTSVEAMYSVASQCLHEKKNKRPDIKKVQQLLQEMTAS
Description: (§1) […]. […] As a result, the data report thermodynamic interaction affinities (Kd values), rather than IC50 values that are dependent on ATP concentrations. The assay uses a DNA-tagged version of the protein kinase, and an immobilized ligand bound to a solid support. Compounds that directly or indirectly prevent kinase binding to the immobilized ligand reduce the amount of kinase captured on the solid support, which is detected using an ultra-sensitive qPCR method. Affinity constants reported from the assay have been reported to be independent of the immobilized ligand used that is coupled to the solid support (See supplemental information in Fabian, M. A. et. al., (2005) Nat. Biotechnol. 23, 329-336; Wodicka, L. M. et. al., (2010) Chem. Biol. 17, 1241-1249.)
(§2) Kinase-tagged T7 phage strains were prepared in an E. coli host derived from the BL21 strain. E. coli were grown to log-phase and infected with T7 phage and incubated with shaking at 32° C. until lysis. The lysates were centrifuged and filtered to remove cell debris. The remaining kinases were produced in HEK-293 cells and subsequently tagged with DNA for qPCR detection. Streptavidin-coated magnetic beads were treated with biotinylated small molecule ligands for 30 minutes at room temperature to generate affinity resins for kinase assays. The liganded beads were blocked with excess biotin and washed with blocking buffer (SeaBlock (Pierce), 1% BSA, 0.05% Tween 20, 1 mM DTT) to remove unbound ligand and to reduce non-specific binding. […] Test compounds were prepared as 111× stocks in 100% DMSO. Kds were determined using an 11-point 3-fold compound dilution series with three DMSO control points. All compounds for Kd measurements are distributed by acoustic transfer (non-contact dispensing) in 100% DMSO. The compounds were then diluted directly into the assays such that the final concentration of DMSO was 0.9%. All reactions were performed in polypropylene 384-well plates. Each was a final volume of 0.02 mL. […] The kinase concentration in the eluates was measured by qPCR.
(§3) Binding constants (Kds) were calculated with a standard dose-response curve using the Hill equation. The Hill Slope was set to −1. Curves were fitted using a non-linear least square fit with the Levenberg-Marquardt algorithm.

FLT3 D835V = target: T2, FLT3 D835V (Homo sapiens, UniProt P36888, D835V); assay: DiscoverX KINOMEscan competition binding assay, FLT3 D835V; conditions: 11-point 3-fold dilution
T2 construct: purchased DiscoverX (KINOMEscan); host or cells: E. coli BL21-derived host (T7 phage) or HEK-293
T2 sequence (P36888 27-993 D835V): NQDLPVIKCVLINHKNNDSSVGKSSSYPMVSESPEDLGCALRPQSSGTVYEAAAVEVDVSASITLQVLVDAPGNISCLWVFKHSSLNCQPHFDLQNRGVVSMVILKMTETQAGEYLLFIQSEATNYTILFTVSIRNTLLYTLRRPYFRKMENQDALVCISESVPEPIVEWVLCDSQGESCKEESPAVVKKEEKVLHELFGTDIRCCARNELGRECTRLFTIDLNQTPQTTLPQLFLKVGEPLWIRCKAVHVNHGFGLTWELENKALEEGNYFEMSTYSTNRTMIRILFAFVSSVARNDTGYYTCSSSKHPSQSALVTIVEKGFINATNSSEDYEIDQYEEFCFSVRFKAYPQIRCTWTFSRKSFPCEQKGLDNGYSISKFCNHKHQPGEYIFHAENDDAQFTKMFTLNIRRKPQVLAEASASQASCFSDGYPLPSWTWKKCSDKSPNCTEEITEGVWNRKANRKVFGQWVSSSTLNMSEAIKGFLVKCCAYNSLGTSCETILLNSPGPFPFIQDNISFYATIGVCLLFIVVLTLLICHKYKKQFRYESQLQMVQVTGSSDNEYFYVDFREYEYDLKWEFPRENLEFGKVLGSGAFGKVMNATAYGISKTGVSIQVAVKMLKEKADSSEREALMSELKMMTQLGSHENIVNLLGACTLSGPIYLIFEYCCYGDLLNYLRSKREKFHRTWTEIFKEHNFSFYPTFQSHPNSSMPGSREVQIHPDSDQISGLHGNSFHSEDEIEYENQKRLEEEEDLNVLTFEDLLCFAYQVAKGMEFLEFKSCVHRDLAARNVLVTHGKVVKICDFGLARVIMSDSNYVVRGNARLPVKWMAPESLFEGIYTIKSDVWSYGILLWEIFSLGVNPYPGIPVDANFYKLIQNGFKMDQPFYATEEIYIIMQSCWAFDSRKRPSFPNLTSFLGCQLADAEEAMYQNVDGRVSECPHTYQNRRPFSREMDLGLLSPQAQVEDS
Description: as §1, §2, §3

In the case of COc1cc2ncc(-c3nc(N[C@H]4CNCC[C@@H]4F)ncc3F)n2nc1C1CC1 [Compound 1a, 4-(6-cyclopropyl-7-methoxyimidazo[1,2-b]pyridazin-3-yl)-5-fluoro-N-((3S,4S)-4-fluoropiperidin-3-yl)pyrimidin-2-amine], the Kd (IRAK4) is reported as < 0.17 nM and the Kd (FLT3 D835V) is reported as < 0.17 nM.

In the case of FC(F)COc1cc2ncc(-c3ccnc(N[C@H]4CNCC[C@@H]4F)n3)n2nc1C1CC1 [Compound 4a, 4-(6-cyclopropyl-7-(2,2-difluoroethoxy)imidazo[1,2-b]pyridazin-3-yl)-N-((3 S,4S)-4-fluoropiperidin-3-yl)pyrimidin-2-amine], the Kd (IRAK4) is reported as 0.59 nM and the Kd (FLT3 D835V) is reported as < 0.17 nM.

With COc1cc2ncc(-c3nc(N[C@H]4CNCC[C@@H]4F)ncc3F)n2nc1C(C)(C)O [Compound 45a, 2-(3-(5-fluoro-2-(((3S,4S)-4-fluoropiperidin-3-yl)amino)pyrimidin-4-yl)-7-methoxyimidazo[1,2-b]pyridazin-6-yl)propan-2-ol] the Kd (IRAK4) was 0.58 nM and the Kd (FLT3 D835V) was 0.87 nM.

In the case of CC(C)(O)c1ccc2ncc(-c3nc(N[C@H]4CNCC[C@@H]4F)ncc3F)n2c1 [Compound 46a, 2-(3-(5-fluoro-2-(((3S,4S)-4-fluoropiperidin-3-yl)amino)pyrimidin-4-yl)imidazo[1,2-a]pyridin-6-yl)propan-2-ol], the Kd (IRAK4) is reported as < 0.17 nM and the Kd (FLT3 D835V) is reported as 0.53 nM.

For COc1cc2ncc(-c3nc(N[C@H]4CNCC[C@@H]4F)ncc3F)n2nc1C1COC1 [Compound 92a, 5-fluoro-N-((3S,4S)-4-fluoropiperidin-3-yl)-4-(7-methoxy-6-(oxetan-3-yl)imidazo[1,2-b]pyridazin-3-yl)pyrimidin-2-amine], the Kd (IRAK4) was < 0.17 nM and the Kd (FLT3 D835V) was < 0.17 nM.

CC(C)(O)c1cn2c(-c3nc(N[C@H]4CNCC[C@@H]4F)ncc3F)cnc2cn1 [Compound 100a, 2-(3-(5-fluoro-2-(((3S,4S)-4-fluoropiperidin-3-yl)amino)pyrimidin-4-yl)imidazo[1,2-a]pyrazin-6-yl)propan-2-ol] was tested, and the Kd (IRAK4) was 1.5 nM and the Kd (FLT3 D835V) was 2.1 nM.

For COc1cc2ncc(-c3nc(N[C@H]4CNCC[C@@H]4F)ncc3F)n2nc1N1CCCS1(=O)=O [Compound 112a, 2-(3-(5-fluoro-2-(((3S,4S)-4-fluoropiperidin-3-yl)amino)pyrimidin-4-yl)-7-methoxyimidazo[1,2-b]pyridazin-6-yl)isothiazolidine 1,1-dioxide], the Kd (IRAK4) was 0.61 nM and the Kd (FLT3 D835V) was < 0.17 nM.
